Each structure is given as a SMILES string. Counter-ions that a name gives are not always drawn.

The target of one test is human ENPP2 (Homo sapiens (Human), UniProt Q13822). Put plainly: Inhibitory activity on human ENPP2 (FS-3 assay). It is filed as biochemical. The note with it: human ENPP2, FS-3 substrate, Table 2. As to the method: Two-fold dilution of each test compound solution (10 μM, 100% dimethyl sulfoxide) is carried out on 96-well V bottom plate (Costar 3363). After ten-fold dilution of each the test compound solution (100% dimethyl sulfoxide) with deionized distilled water, 10 μL of the diluted each compound solution (10% dimethyl sulfoxide) was aliquoted to a black flat bottom 96-well plate (Costar 3915).
By IC50 is commonly meant the point on the concentration scale where inhibition reaches its midpoint. Read a high IC50 as a need for much substance. With `CN1C(=O)N(c2ccc3[nH]nnc3c2)C2(CCN(C(=O)c3cnc(NCc4cccc(OC(F)(F)F)c4)nc3)CC2)C1=O` [Compound 9, 1-(1H-1,2,3-benzotriazol-5-yl)-3-methyl-8[2-({[3-(trifluoromethoxy)phenyl]methyl}amino)pyrimidine-5-carbonyl]-1,3,8-triazaspiro[4,5]-decane-2,4-dione], the midpoint of inhibition, the IC50, lay at 9 nM. For `O=C(Cc1nnc(-c2cnc(NC3Cc4ccccc4C3)nc2)o1)N1CCc2[nH]nnc2C1` [Compound 33, 2-(5-(2-((2,3-dihydro-1H-inden-2-yl)amino)pyrimidin-5-yl)-1,3,4-oxadiazol-2-yl)-1-(1,4,6,7-tetrahydro-5H-[1,2,3]triazolo[4,5-c]pyridin-5-yl)ethan-1-one], half-maximal inhibition (IC50) required 2 nM.

For `O=C(O)C1=CCN(C(=O)Cc2nnc(-c3cnc(NC4Cc5ccccc5C4)nc3)o2)CC1` [Compound 48, 1-[2-(5-{2-[(2,3-dihydro-1H-inden-2-yl)amino]pyrimidin-5-yl}-1,3,4-oxadiazol-2-yl)acetyl]-1,2,3,6-tetrahydropyridine-4-carboxylic Acid], the midpoint of inhibition, the IC50, lay at 13.3 nM. On the same count and under the same terms, the figure for `O=C(Cc1nnc(-c2cnc(NC3Cc4ccccc4C3)nc2)o1)Nc1ccc(C(=O)O)cc1` [Compound 50, 4-[2-(5-{2-[(2,3-dihydro-1H-inden-2-yl)amino]pyrimidin-5-yl}-1,3,4-oxadiazol-2-yl)acetamido]benzoic Acid] is 4.5 nM; for `O=C(Cc1nnc(-c2cnc(NC3Cc4ccccc4C3)nc2)[nH]1)N1CCc2[nH]nnc2C1` [Compound 52, 2-(5-{2-[(2,3-dihydro-1H-inden-2-yl)amino]pyrimidin-5-yl}-4H-1,2,4-triazol-3-yl)-1-{1H,4H,5H,6H,7H-[1,2,3]triazolo[4,5-c]pyridin-5-yl}ethan-1-one] it is 3.6 nM. On the same count and under the same terms, with `CCc1cc(-c2cnc(NC3Cc4ccccc4C3)nc2)nn1CC(=O)N1CCc2[nH]nnc2C1` [Compound 54, 2-(3-{2-[(2,3-dihydro-1H-inden-2-yl)amino]pyrimidin-5-yl}-5-ethyl-1H-pyrazol-1-yl)-1-{1H,4H,5H,6H,7H-[1,2,3]triazolo[4,5-c]pyridin-5-yl}ethan-1-one] the figure was 15.8 nM; with `O=C(Cn1cc(-c2cnc(NC3Cc4ccccc4C3)nc2)cn1)N1CCc2[nH]nnc2C1` [Compound 56, 2-(4-{2-[(2,3-dihydro-1H-inden-2-yl)amino]pyrimidin-5-yl}-1H-pyrazol-1-yl)-1-{1H,4H,5H,6H,7H-[1,2,3]triazolo[4,5-c]pyridin-5-yl}ethan-1-one], 2.2 nM. For the molecule `O=C(Cn1cc(-c2cnc(NC3Cc4ccccc4C3)nc2)cn1)Nc1ccc2[nH]c(=O)oc2c1` [Compound 57, 2-(4-{2-[(2,3-dihydro-1H-inden-2-yl)amino]pyrimidin-5-yl}-1H-pyrazol-1-yl)-N-(2-oxo-2,3-dihydro-1,3-benzoxazol-6-yl)acetamide], the IC50 came out at 2 nM. Still for that read-out and setting: the figure for `O=C(Cn1cc(-c2ccc(NC3Cc4ccccc4C3)nc2)cn1)N1CCc2[nH]nnc2C1` [Compound 58, 2-(4-{6-[(2,3-dihydro-1H-inden-2-yl)amino]pyridin-3-yl}-1H-pyrazol-1-yl)-1-{1H,4H,5H,6H,7H-[1,2,3]triazolo[4,5-c]pyridin-5-yl}ethan-1-one] is 3.5 nM. In turn, `O=C(Cn1cc(-c2cnc(NC3Cc4ccccc4C3)cn2)cn1)N1CCc2[nH]nnc2C1` [Compound 59, 2-(4-{5-[(2,3-dihydro-1H-inden-2-yl)amino]pyrazin-2-yl}-1H-pyrazol-1-yl)-1-{1H,4H,5H,6H,7H-[1,2,3]triazolo[4,5-c]pyridin-5-yl}ethan-1-one] displayed an IC50 of 11.1 nM. Still for that read-out and setting: the figure for `O=C(Cn1cnc(-c2cnc(NC3Cc4ccccc4C3)nc2)c1)N1CCc2[nH]nnc2C1` [Compound 60, 2-(4-{2-[(2,3-dihydro-1H-inden-2-yl)amino]pyrimidin-5-yl}-1H-imidazol-1-yl)-1-{1H,4H,5H,6H,7H-[1,2,3]triazolo[4,5-c]pyridin-5-yl}ethan-1-one] is 1.8 nM; for `O=C(Cn1cc(-c2cnc(NC3Cc4ccccc4C3)nc2)c(OC2CNC2)n1)N1CCc2[nH]nnc2C1` [Compound 62, 2-[3-(azetidin-3-yloxy)-4-{2-[(2,3-dihydro-1H-inden-2-yl)amino]pyrimidin-5-yl}-1H-pyrazol-1yl]-1-{1H,4H,5H,6H,7H-[1,2,3]triazolo[4,5-c]pyridin-5-yl}ethan-1-one hydrochloride] it is 2.4 nM; for `O=C(Cn1cc(-c2cnc(NC3Cc4ccccc4C3)nc2)c(OCc2ccccc2)n1)N1CCOCC1` [Compound 64, 2-[3-(benzyloxy)-4-{2-[(2,3-dihydro-1H-inden-2-yl)amino]pyrimidin-5-yl}-1H-pyrazol-1-yl]-1-(morpholin-4-yl)ethan-1-one] it is 3 nM.

Molecule `O=C(Cn1cc(-c2cnc(NC3Cc4ccccc4C3)nc2)c(OCCN2CCNCC2)n1)N1CCc2[nH]nnc2C1` [Compound 67, 2-(4-{2-[(2,3-dihydro-1H-inden-2-yl)amino]pyrimidin-5-yl}-3-[2-(piperazin-1-yl)ethoxy]-1H-pyrazol-1-yl)-1-{1H,4H,5H,6H,7H-[1,2,3]triazolo[4,5-c]pyridin-5-yl}ethan-1-one] had an IC50 of 6.1 nM. Take `O=C(Cn1cc(-c2cnc(NC3Cc4ccccc4C3)nc2)c(OC2CCNCC2)n1)N1CCc2[nH]nnc2C1` [Compound 69, 2-(4-{2-[(2,3-dihydro-1H-inden-2-yl)amino]pyrimidin-5-yl}-3-(piperidin-4-yloxy)-1H-pyrazol-1-yl)-1-{1H,4H,5H,6H,7H-[1,2,3]triazolo[4,5-c]pyridin-5-yl}ethan-1-one]: the IC50 stood at 4 nM.

In turn, `O=C(Cn1cc(-c2cnc(NC3Cc4ccccc4C3)nc2)c(OC2CCN(CC(F)F)CC2)n1)N1CCc2[nH]nnc2C1` [Compound 71, 2-(3-{[1-(2,2-difluoroethyl)piperidin-4-yl]oxy}-4-{2-[(2,3-dihydro-1H-inden-2-yl)amino]pyrimidin-5-yl}-1H-pyrazol-1-yl)-1-{1H,4H,5H,6H,7H-[1,2,3]triazolo[4,5-c]pyridin-5-yl}ethan-1-one] displayed an IC50 of 3.6 nM. Regarding `O=C(Cn1cc(-c2cnc(NC3Cc4ccccc4C3)nc2)c(C(=O)N2CCCCC2)n1)N1CCc2[nH]nnc2C1` [Compound 76, 2-(4-{2-[(2,3-dihydro-1H-inden-2-yl)amino]pyrimidin-5-yl}-3-(piperidine-1-carbonyl)-1H-pyrazol-1-yl)-1-{1H,4H,5H,6H,7H-[1,2,3]triazolo[4,5-c]pyridin-5-yl}ethan-1-one], the IC50 was determined as 3 nM. On to `O=C(Cn1cc(-c2cnc(NC3Cc4ccccc4C3)nc2)c(C(=O)N2CCNCC2)n1)N1CCc2[nH]nnc2C1` [Compound 77, 2-(4-{2-[(2,3-dihydro-1H-inden-2-yl)amino]pyrimidin-5-yl}-3-(piperazine-1-carbonyl)-1H-pyrazol-1-yl)-1-{1H,4H,5H,6H,7H-[1,2,3]triazolo[4,5-c]pyridin-5-yl}ethan-1-one hydrochloride], for which the IC50 came out at 6.5 nM.

The molecule `CCc1c(-c2cnc(NC3Cc4ccccc4C3)nc2)cnn1CC(=O)N1CCc2[nH]nnc2C1` [Compound 78, 2-(4-{2-[(2,3-dihydro-1H-inden-2-yl)amino]pyrimidin-5-yl}-5-ethyl-1H-pyrazol-1-yl)-1-{1H,4H,5H,6H,7H-[1,2,3]triazolo[4,5-c]pyridin-5-yl}ethan-1-one] returned an IC50 of 2.4 nM. Same read-out and setting: with `O=C(Cn1cc(-c2cnc(NC3Cc4ccccc4C3)nc2)c(CN2CCc3ccccc32)n1)N1CCc2[nH]nnc2C1` [Compound 83, 2-(4-{2-[(2,3-dihydro-1H-inden-2-yl)amino]pyrimidin-5-yl}-3-(2,3-dihydro-1H-indol-1-ylmethyl)-1H-pyrazol-1-yl)-1-{1H,4H,5H,6H,7H-[1,2,3]triazolo[4,5-c]pyridin-5-yl}ethan-1-one] the figure was 2.1 nM; with `O=C(Cn1cc(-c2cnc(NC3Cc4ccccc4C3)nc2)c(CN2CCC(F)(F)CC2)n1)N1CCc2[nH]nnc2C1` [Compound 85, 2-{3-[(4,4-difluoropiperidin-1-yl)methyl]-4-{2-[(2,3-dihydro-1H-inden-2-yl)amino]pyrimidin-5-yl}-1H-pyrazol-1-yl}-1-{1H,4H,5H,6H,7H-[1,2,3]triazolo[4,5-c]pyridin-5-yl}ethan-1-one hydrofluoride], 2.2 nM; with `O=C(Cn1cc(-c2cnc(NC3Cc4ccccc4C3)nc2)c(CN2CC=C(c3ccccc3)CC2)n1)N1CCc2[nH]nnc2C1` [Compound 86, 2-(4-{2-[(2,3-dihydro-1H-inden-2-yl)amino]pyrimidin-5-yl}-3-[(4-phenyl-1,2,3,6-tetrahydropyridin-1-yl)methyl]-1H-pyrazol-1-yl)-1-{3H,4H,5H,6H,7H-[1,2,3]triazolo[4,5-c]pyridin-5-yl}ethan-1-one], 3 nM.

`CN1CCN(Cc2nn(CC(=O)N3CCc4[nH]nnc4C3)cc2-c2cnc(NC3Cc4ccccc4C3)nc2)CC1=O` [Compound 87, 4-[(4-{2-[(2,3-dihydro-1H-inden-2-yl)amino]pyrimidin-5-yl}-1-(2-oxo-2-{1H,2H,3H,4H,5H,6H,7H-[1,2,3]triazolo[4,5-c]pyridin-5-yl}ethyl)-1H-pyrazol-3-yl)methyl]-1-methylpiperazin-2-one] gave an IC50 of 3.1 nM. On the same count and under the same terms, with `O=C1CNCCN1Cc1nn(CC(=O)N2CCc3[nH]nnc3C2)cc1-c1cnc(NC2Cc3ccccc3C2)nc1` [Compound 88, 1-[(4-{2-[(2,3-dihydro-1H-inden-2-yl)amino]pyrimidin-5-yl}-1-(2-oxo-2-{1H,4H,5H,6H,7H-[1,2,3]triazolo[4,5-c]pyridin-5-yl}ethyl)-1H-pyrazol-3-yl)methyl]piperazin-2-one] the figure was 4.1 nM.

The subject of the next test is LPA production in blood serum. Put plainly: Inhibitory activity on LPA production in mouse blood serum. The class given is biochemical. The note with it: mouse blood serum (m), 18:1 LPC added.
`O=C(Cn1cc(-c2cnc(NC3Cc4ccccc4C3)nc2)cn1)N1CCc2[nH]nnc2C1` [Compound 56, 2-(4-{2-[(2,3-dihydro-1H-inden-2-yl)amino]pyrimidin-5-yl}-1H-pyrazol-1-yl)-1-{1H,4H,5H,6H,7H-[1,2,3]triazolo[4,5-c]pyridin-5-yl}ethan-1-one] returned an IC50 of 13 nM. The same measure, in the same setting: the figure for `O=C(Cn1cnc(-c2cnc(NC3Cc4ccccc4C3)nc2)c1)N1CCc2[nH]nnc2C1` [Compound 60, 2-(4-{2-[(2,3-dihydro-1H-inden-2-yl)amino]pyrimidin-5-yl}-1H-imidazol-1-yl)-1-{1H,4H,5H,6H,7H-[1,2,3]triazolo[4,5-c]pyridin-5-yl}ethan-1-one] is 11 nM; for `CCOc1nn(CC(=O)N2CCc3[nH]nnc3C2)cc1-c1cnc(NC2Cc3ccccc3C2)nc1` [Compound 61, 2-(4-{2-[(2,3-dihydro-1H-inden-2-yl)amino]pyrimidin-5-yl}-3-ethoxy-1H-pyrazol-1-yl)-1-{1H,4H,5H,6H,7H-[1,2,3]triazolo[4,5-c]pyridin-5-yl}ethan-1-one] it is 25 nM. For `O=C(Cn1cc(-c2cnc(NC3Cc4ccccc4C3)nc2)c(OC2CNC2)n1)N1CCc2[nH]nnc2C1` [Compound 62, 2-[3-(azetidin-3-yloxy)-4-{2-[(2,3-dihydro-1H-inden-2-yl)amino]pyrimidin-5-yl}-1H-pyrazol-1yl]-1-{1H,4H,5H,6H,7H-[1,2,3]triazolo[4,5-c]pyridin-5-yl}ethan-1-one hydrochloride], it took 22 nM to reach half-maximal inhibition (IC50).

These data come from patent US11548883B2, “Compounds as autotaxin inhibitors and pharmaceutical compositions comprising the same” (LegoChem Biosciences, Inc., priority 2017, dated 2023).
